According to patent US20040101578A1, “Compositon containg ginkgo biloba that inhibit angiogenesis and matrix metalloprotinase” (priority 2003, published 2004):

Test system: human umbilical vein endothelial cells (HUVEC)
Test: Tube formation of HUVEC grown with Matrigel
Assay type: cell-based
Conditions: for Area of the tube: 50 μM compound in DMSO, DMSO control 88; for Area of the tube %: DMSO control = 100; for inhibition at 50 µM: Homo sapiens, HUVEC, read-out: percent inhibition of the tube formation
Description: In order to do the tube formation assay, blood vessel endothelial cells, that Is, human umbilical vein endothellal cells (HUVECs), were isolated. HUVECs were isolated from freshly obtained cords after cesarean section, and they were grown and identified by immunocytochemial staining with anti-Factor Vil antibody. HUVECs grown with Matrigel (BD Bioscience, Bedford, Mass., USA), were treated with 0.4 μg/μl of the above Ginkgo biloba leaf extract (Hwa II Pharmaceutical Co., LTD, Korea) of the EXAMPLE 1, and further incubated at 37° C. for […]. As a control, the procedure was repeated without Ginkgo biloba leaf extract.
The area of the tube was determined by the image analysis program Image-Pro Plus (Media Cybernetics, USA), and as summarized in Table I, tube formation after treatment of Ginkgo biloba leaf extract was inhibited by about 60% as compared with the untreated control.
Representative compounds from Ginkgo biloba, quercetin (Sigma Cat No. Q0125) and kaempferol (Indofine Chemical Cat No. K-102) as flavonoids, amentoflavon (Indofine Chemical Cat No. 021101S) as a biflavonoid and ginkolide A (Sigma Cat No. G4028) as a terpene-lactone, were subjected to the tube formation assay as described in EXAMPLE 1.
Since the above chemicals are not soluble in water, they were dissolved on dimethyl sulfoxide (DMSO), and in order to exclude the effect of solvent for these compounds, HUVECs treated with the same amount of DMSO were used as a control. FIG. 6 is a picture of the 1% DMSO-treated HUVEC control, and FIGS. 7-10 are pictures showing the effect on tube formation of individual compounds (quercetin, kaempferol, amentoflavon, and ginlkolide A, respectively). At 50 μM concentration, the order of inhibitory effect on HUVEC tube formation was quercetin>kaempferol>amentoflavon>ginkgolide A. Ginkgolide A was not effective even at 1 mM concentration.
Therefore, not biflavonoids but flavonoids such as quercetin and kaempferol, are the major component for angiogenesis inhibition in Ginkgo biloba leaf extract.

[1] = 50 μM compound, versus DMSO control

Structure (SMILES)	Area of the tube	percent inhibition of the tube formation [1]	Area of the tube % (50 μM compound) [%]	effect on HUVEC tube formation (1 mM concentration)	inhibition at 50 µM [1] [%]
O=c1cc(-c2ccc(O)c(-c3c(O)cc(O)c4c(=O)cc(-c5ccc(O)cc5)oc34)c2)oc2cc(O)cc(O)c12 [Amentoflavon, amentoflavon]	48	45	55		
C[C@@H]1C(=O)O[C@H]2C[C@@]34[C@H]5C[C@@H](C(C)(C)C)[C@]36[C@@H](OC(=O)[C@@H]6O)O[C@@]4(C(=O)O5)[C@]21O [Ginkgolide A, ginkolide A]				not effective	
O=c1c(O)c(-c2ccc(O)cc2)oc2cc(O)cc(O)c12 [Kaempferol, kaempferol]	24		27		73
O=c1c(O)c(-c2ccc(O)c(O)c2)oc2cc(O)cc(O)c12 [Quercetin, quercetin]	6.6		7.5		93
